Assay results taken from ChEMBL document CHEMBL4665789, “Discovery of Novel pERK1/2- or β-Arrestin-Preferring 5-HT Receptor-Biased Agonists: Diversified Therapeutic-like versus Side Effect Profile” (J Med Chem, 2020).
Blank lines part the entries; values can stand above or below the compound they belong to. Active and inactive are the calls of the source. The rule behind the calls is not given here.

Legend:
[1] = target: T1, Adrenergic receptor alpha-1 (Rattus norvegicus, UniProt P15823+P23944+P43140); assay: Displacement of [3H]prazosin from alpha1 adrenergic receptor in rat cortex membranes measured after 30 mins by Microbeta2 scintillation counting method; assay type: cell membranes
T1 sequence (P15823 whole entry): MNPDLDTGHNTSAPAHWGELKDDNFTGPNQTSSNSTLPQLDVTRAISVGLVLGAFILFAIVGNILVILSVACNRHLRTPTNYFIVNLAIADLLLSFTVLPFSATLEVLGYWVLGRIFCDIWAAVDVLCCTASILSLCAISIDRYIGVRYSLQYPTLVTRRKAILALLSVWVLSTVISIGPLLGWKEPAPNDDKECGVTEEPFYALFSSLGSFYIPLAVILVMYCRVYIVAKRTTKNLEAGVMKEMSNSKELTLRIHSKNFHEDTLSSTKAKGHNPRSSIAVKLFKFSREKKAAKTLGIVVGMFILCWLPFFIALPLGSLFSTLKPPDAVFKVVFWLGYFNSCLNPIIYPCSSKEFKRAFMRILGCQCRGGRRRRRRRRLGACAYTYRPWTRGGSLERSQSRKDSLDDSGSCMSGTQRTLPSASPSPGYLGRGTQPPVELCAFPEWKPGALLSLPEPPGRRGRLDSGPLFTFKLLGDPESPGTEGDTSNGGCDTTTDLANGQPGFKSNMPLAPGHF
T1 sequence (P23944 whole entry): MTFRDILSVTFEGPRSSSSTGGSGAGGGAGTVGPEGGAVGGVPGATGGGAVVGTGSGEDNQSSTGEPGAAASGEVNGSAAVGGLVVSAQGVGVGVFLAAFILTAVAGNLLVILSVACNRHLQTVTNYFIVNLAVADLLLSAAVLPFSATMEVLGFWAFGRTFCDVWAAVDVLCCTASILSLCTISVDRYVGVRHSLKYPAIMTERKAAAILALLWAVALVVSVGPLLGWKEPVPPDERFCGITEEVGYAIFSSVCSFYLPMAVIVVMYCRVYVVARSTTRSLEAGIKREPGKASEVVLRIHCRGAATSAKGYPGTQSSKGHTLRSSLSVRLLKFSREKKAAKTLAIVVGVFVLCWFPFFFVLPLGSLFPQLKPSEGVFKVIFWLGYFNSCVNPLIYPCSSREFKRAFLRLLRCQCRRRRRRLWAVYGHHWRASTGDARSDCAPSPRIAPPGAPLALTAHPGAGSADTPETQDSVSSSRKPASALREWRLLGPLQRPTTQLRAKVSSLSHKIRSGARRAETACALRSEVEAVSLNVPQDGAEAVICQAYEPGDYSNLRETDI
T1 sequence (P43140 whole entry): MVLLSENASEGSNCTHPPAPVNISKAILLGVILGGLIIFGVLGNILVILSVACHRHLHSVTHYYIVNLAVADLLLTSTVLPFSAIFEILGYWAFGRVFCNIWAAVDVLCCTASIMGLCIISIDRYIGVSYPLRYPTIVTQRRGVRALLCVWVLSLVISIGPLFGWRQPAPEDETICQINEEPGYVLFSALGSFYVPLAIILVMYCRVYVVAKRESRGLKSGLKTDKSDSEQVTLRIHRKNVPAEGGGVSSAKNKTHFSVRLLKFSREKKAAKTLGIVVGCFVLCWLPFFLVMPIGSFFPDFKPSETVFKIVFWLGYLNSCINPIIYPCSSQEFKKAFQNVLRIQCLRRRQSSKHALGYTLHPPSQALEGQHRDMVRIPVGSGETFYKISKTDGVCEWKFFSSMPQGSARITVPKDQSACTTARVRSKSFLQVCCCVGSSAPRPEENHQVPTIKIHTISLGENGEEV

[2] = target: T2, 5-hydroxytryptamine receptor 1A (Homo sapiens, UniProt P08908); assay: Displacement of [3H]8-OH-DPAT from human 5-HT1A receptor stably expressed in CHO-K1 cell membranes measured after 60 mins by Microbeta2 scintillation counting method
T2 sequence (P08908 whole entry): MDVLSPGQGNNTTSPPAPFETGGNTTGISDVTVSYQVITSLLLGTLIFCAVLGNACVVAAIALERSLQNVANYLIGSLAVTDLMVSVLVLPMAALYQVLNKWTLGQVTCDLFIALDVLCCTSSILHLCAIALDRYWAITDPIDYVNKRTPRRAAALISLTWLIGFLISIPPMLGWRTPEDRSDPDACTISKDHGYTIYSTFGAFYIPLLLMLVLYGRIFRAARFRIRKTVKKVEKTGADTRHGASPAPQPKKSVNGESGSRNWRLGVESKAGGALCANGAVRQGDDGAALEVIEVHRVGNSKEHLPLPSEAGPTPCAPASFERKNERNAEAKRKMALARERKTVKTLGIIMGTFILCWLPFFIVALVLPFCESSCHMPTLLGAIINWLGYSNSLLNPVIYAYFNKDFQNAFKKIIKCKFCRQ

D(2) dopamine receptor = D(2) dopamine receptor (Homo sapiens, UniProt P14416); assay: Displacement of [3H]methylspiperone from human D2 receptor stably expressed in CHO-K1 cell membranes measured after 60 mins by Microbeta2 scintillation counting method
[3] = target: T2, 5-hydroxytryptamine receptor 1A; assay: Biased agonist activity at human 5-HT1A receptor stably expressed in CHO-K1 cells assessed as increase in ERK1/2 phosphorylation after 15 mins by Alphalisa assay
[4] = target: T2, 5-hydroxytryptamine receptor 1A; assay: Biased agonist activity at human 5-HT1A receptor stably expressed in CHO-K1 cells assessed as inhibition of forskolin-induced cAMP accumulation after 40 mins by LANCE Ultra cAMP kit-based TR-FRET assay; assay type: functional, cell-based
[5] = target: T2, 5-hydroxytryptamine receptor 1A; assay: Biased agonist activity at Gal4-VP16 transcription factor linked human 5-HT1A receptor expressed in human U2OS cells assessed as induction of beta-arrestin2 recruitment measured after 5 hrs by Tango assay; assay type: cell-based
[6] = target: T2, 5-hydroxytryptamine receptor 1A; assay: Biased agonist activity at human 5-HT1A receptor stably expressed in CHO-K1 cells co-expressing Galpha16/GPCR assessed as increase in calcium mobilization measured for 30 secs in presence of coelenterazine by aequorin-reporter gene based luminescence assay; assay type: functional, cell-based
[7] = Stability in rat liver microsomes assessed as parent compound remaining at 50 uM preincubated for 5 mins followed by NADPH addition and measured after 2 hrs by LC-MS analysis; assay type: ADME, Microsome; conditions: time 125 min, read-out: Stabilty
[8] = Permeability of the compound at 100 uM measured after 40 mins by PAMPA; assay type: ADME; conditions: read-out: permeability
[9] = Hepatotoxicity in human HepG2 cells assessed as concentration required to show 50% cell viability measured after 72 hrs by celltiter 96 aqueous non-Radioactive cell proliferation assay; assay type: toxicity, cell-based; conditions: read-out: Activity
Rattus norvegicus [10] = assay: Antidepressant activity in Wistar rat assessed as reduction in immobility time at […], po treated 60 mins prior to testing and measured during the 5 min test period in presence of WAY100635 by Porsolt-forced swim test; assay type: functional, organism-based
[11] = Drug uptake in Wistar rat brain at 0.31 to 1.25 mg/kg, po by HPLC analysis; assay type: ADME, organism-based; conditions: in vivo, dose 0.31-1.25 mg/kg
[12] = Drug uptake in Wistar rat serum at 0.31 to 1.25 mg/kg, po by HPLC analysis; assay type: ADME, organism-based; conditions: in vivo, dose 0.31-1.25 mg/kg
[13] = Toxicity in po dosed Wistar rat assessed as induction of lower lip retraction at 2 times MED treated for 10 mins; assay type: organism-based; conditions: in vivo
Rattus norvegicus [14] = assay: Antidepressant activity in po dosed Wistar rat assessed as reduction in immobility time treated 60 mins prior to testing and measured during the 5 min test period by Porsolt-forced swim test; assay type: functional; conditions: 1 h, read-out: MED
[15] = Drug uptake in Wistar rat serum at 0.04 to […], po by HPLC analysis; assay type: ADME, organism-based; conditions: in vivo, dose 0.04-0.63 mg/kg
[16] = Drug uptake in Wistar rat brain at 0.04 to […], po by HPLC analysis; assay type: ADME, organism-based; conditions: in vivo, dose 0.04-0.63 mg/kg
[17] = Toxicity in po dosed Wistar rat assessed as induction of lower lip retraction at 4 times MED treated for 10 mins; assay type: organism-based; conditions: in vivo

Chain of D(2) dopamine receptor (P14416 whole entry): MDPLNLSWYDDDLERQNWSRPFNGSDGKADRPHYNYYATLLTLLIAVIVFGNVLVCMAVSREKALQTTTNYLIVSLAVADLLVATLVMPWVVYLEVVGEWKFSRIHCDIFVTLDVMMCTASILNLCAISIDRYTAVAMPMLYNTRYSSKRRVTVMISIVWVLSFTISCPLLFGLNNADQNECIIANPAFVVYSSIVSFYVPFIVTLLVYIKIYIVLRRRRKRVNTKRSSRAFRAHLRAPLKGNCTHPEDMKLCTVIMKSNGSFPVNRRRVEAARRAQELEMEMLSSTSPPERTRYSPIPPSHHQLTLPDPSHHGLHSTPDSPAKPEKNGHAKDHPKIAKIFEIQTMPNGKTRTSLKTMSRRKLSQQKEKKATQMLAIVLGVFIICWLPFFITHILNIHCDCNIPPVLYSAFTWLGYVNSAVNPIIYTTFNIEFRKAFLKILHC

Structure (SMILES): O=C(c1ccc(Cl)c(Cl)c1)N1CCC(F)(CNCCOc2cccc(Cl)c2)CC1
Ki [2]: 0.0251 nM
pKi [1]: < 6
Ki (D(2) dopamine receptor): > 1000 nM

Structure (SMILES): O=C(c1ccc(F)c(Cl)c1)N1CCC(F)(CNCCOc2cccc3c2CCN3)CC1
Ki [2]: 0.0447 nM
pKi [1]: 6.36
Ki (D(2) dopamine receptor): > 1000 nM
EC50 [3]: 0.00363 nM
EC50 [4]: 0.0132 nM
EC50 [5]: 0.00513 nM
EC50 [6]: 3.55 nM

Structure (SMILES): O=C(c1ccc(Cl)c(Cl)c1)N1CCC(F)(CNCCOc2cccc(F)c2)CC1
Ki [2]: 0.0204 nM
pKi [1]: 6.2
Ki (D(2) dopamine receptor): > 1000 nM
EC50 [3]: 20 nM
EC50 [4]: 39.8 nM
EC50 [5]: 617 nM
EC50 [6]: 646 nM

Structure (SMILES): O=C(c1ccc(F)c(Cl)c1)N1CCC(F)(CNCCOc2ccccc2F)CC1
pKi [1]: < 6

Structure (SMILES): CC(=O)Nc1cccc(OCCNCC2(F)CCN(C(=O)c3ccc(F)c(Cl)c3)CC2)c1
remaining at 2 h, 50 µM [7]: 73%

Structure (SMILES): N#CC(C#N)=NNc1cccc(Cl)c1 [CARBONYL CYANIDE M-CHLOROPHENYLHYDRAZONE]
CC50 at 72 h [9]: < 10000 nM

Structure (SMILES): CNc1ccccc1OCCNCC1(F)CCN(C(=O)c2ccc(F)c(Cl)c2)CC1
Drug uptake [15]: Active
Drug uptake [16]: Active
Activity [17]: Non-Toxic
minimal effective dose (Rattus norvegicus [14]): 0.16 mg/kg
pKi [1]: 6.04
remaining at 2 h, 50 µM [7]: 54%
Papp at 40 min, 100 µM [8]: 6.7 ×10⁻⁶ cm/s

Structure (SMILES): CC(=O)Nc1cccc(OCCNCC2(F)CCN(C(=O)c3ccc(Cl)c(Cl)c3)CC2)c1
pKi [1]: < 6

Structure (SMILES): COc1cccc2c1C(=O)c1c(O)c3c(c(O)c1C2=O)C[C@@](O)(C(=O)CO)C[C@@H]3O[C@H]1C[C@H](N)[C@H](O)[C@H](C)O1 [DOXORUBICIN]
CC50 at 72 h [9]: < 1000 nM

The next lines start with results.

pKi [1]: < 6
Structure (SMILES): O=C(c1ccc(F)c(Cl)c1)N1CCC(F)(CNCCOc2ccccc2Cl)CC1

pKi [1]: 7.76
Structure (SMILES): CC1(C)Cc2cccc(OCCNCC3(F)CCN(C(=O)c4ccc(F)c(Cl)c4)CC3)c2O1

remaining at 2 h, 50 µM [7]: 54%
Papp at 40 min, 100 µM [8]: 8.6 ×10⁻⁶ cm/s
Structure (SMILES): O=C(c1ccc(F)c(Cl)c1)N1CCC(F)(CNCCOc2ccccc2)CC1
CC50 at 72 h [9]: > 50000 nM

pKi [1]: < 6
EC50 [6]: 302 nM
Structure (SMILES): Cc1cnc(CNCC2(F)CCN(C(=O)c3ccc(F)c(Cl)c3)CC2)nc1

pKi [1]: < 6
Structure (SMILES): O=C(c1ccc(F)c(Cl)c1)N1CCC(F)(CNCCOc2cccc(C(F)(F)F)c2)CC1

remaining at 2 h, 50 µM [7]: 54%
Structure (SMILES): O=C(c1ccc(F)c(Cl)c1)N1CCC(F)(CNCCOc2ccccn2)CC1

Drug uptake [11]: Active
Drug uptake [12]: Active
Papp at 40 min, 100 µM [8]: 4.7 ×10⁻⁶ cm/s
Structure (SMILES): O=C(c1ccc(F)c(Cl)c1)N1CCC(F)(CNCCOc2cccc3[nH]ccc23)CC1
Activity (Rattus norvegicus [10]): inactive
Activity [13]: Toxic
minimal effective dose (Rattus norvegicus [14]): 0.63 mg/kg
CC50 at 72 h [9]: > 50000 nM

pKi [1]: < 6
Structure (SMILES): COc1ccc(OCCNCC2(F)CCN(C(=O)c3ccc(Cl)c(Cl)c3)CC2)cc1

pKi [1]: < 6
Structure (SMILES): CN(C)c1cccc(OCCNCC2(F)CCN(C(=O)c3ccc(F)c(Cl)c3)CC2)c1

remaining at 2 h, 50 µM [7]: 73%
Structure (SMILES): O=C(c1ccc(F)c(Cl)c1)N1CCC(F)(CNCCOc2cccc3cccnc23)CC1
